# Experimental data as given in publication PMC6980506, “Comparative pharmacokinetics and pharmacodynamics of the advanced Retinol-Binding Protein 4 antagonist in dog and cynomolgus monkey” (PLoS ONE, 2020).
# Experiments:
# [1] = Metabolic stability in cynomolgus monkey liver microsomes; format: in vitro ADME; details: male, pH 7.4, Cyno liver microsomes, 1 mg/mL, read-out: Microsomal Stability (% Remaining at 30 min)
# Description: All measurements were done in duplicate. Pooled mixed gender human donor microsomes, male beagle dog microsomes and male cynomolgus monkey were obtained from BioIVT (Baltimore, MD). […] A mixture containing 50 mM potassium phosphate buffer pH 7.4 and 1 mg/mL liver microsomes was pre-warmed for 10 min at 37°C in a shaking water bath, followed by the addition of test compound. Final DMSO concentration in the reaction mix was 0.1%. […] The final volume of the reaction mixture was 800 μL, containing 1 mg/mL liver microsomes, and 1 μM test compound. Aliquots (100 μL) of reaction mixtures were removed from the incubation plate at pre-defined timepoints and mixed with 150 μL of ice-cold acetonitrile, incubated on ice for 15 min, and samples were centrifuged (3,600 rpm, 10 min, 4°C) to precipitate protein. The supernatants were diluted 1:1 (v/v) with water containing the internal standard and subjected to the LC/MS analysis.
# [2] = Metabolic clearance in human hepatocytes; format: in vitro ADME; details: cryopreserved hepatocytes, read-out: Hepatocyte CLint (intrinsic clearance)
# Description: (§1) All measurements were done in duplicate. Testosterone and 7-hydroxycoumarin were used as positive controls. Pooled cryopreserved human hepatocytes, cryopreserved male beagle dog hepatocytes, and cryopreserved male cynomolgus monkey hepatocytes were obtained from BioIVT (Baltimore, MD). Compound at 1 μM was incubated with 1 x 10^6 cells. Final DMSO concentration in the reaction mix was 0.1%. Aliquots (100 μL) of reaction mixtures were removed from the incubation plate at different timepoints and mixed with 150 μL of ice-cold acetonitrile. After incubation on ice for 15 min, the samples were centrifuged (3,600 rpm, 10 min, 4°C) to precipitate protein. The supernatants were diluted 1:1 (v/v) with water containing internal standards and subjected to the LC/MS analysis. Hepatic clearance was calculated using the well-stirred liver model
# [3] = Metabolic clearance in dog hepatocytes; format: in vitro ADME; details: male, beagle, cryopreserved hepatocytes, read-out: Hepatocyte CLint (intrinsic clearance)
# Description: as §1
# plasma RBP4 = assay: Plasma RBP4 lowering (ELISA) in beagle dog; format: in vivo
# Description: Pharmacokinetic studies were conducted in male beagle dogs and male cynomolgus monkeys at SRI International, Menlo Park, CA. General procedures for animal care and housing were in accordance with the National Research Council (NRC) Guide for the Care and Use of Laboratory Animals (1996) and the Animal Welfare Standards incorporated in 9 CFR Part 3, 1991 and complied with guidelines set forth by the ARVO Animal Statement for the Use of Animals in Ophthalmic and Vision Research. During the course of the PK experiments, cynomolgus monkeys were individually housed in stainless steel primary enclosures in an AAALAC-accredited facility. Animals were fed a commercial monkey chow, and supplemental food was provided (fresh fruits, vegetables, seeds, and nuts). Reverse osmosis-purified drinking water was available at all times. Cynomolgus monkeys were maintained on a 12:12 hour light:dark cycle at the 64–84°F temperature and 30–70% humidity. Monkeys had access to enrichment opportunities (grooming devices, foraging devices, activity panels and mirrors) and were provided auditory stimuli and human interaction enrichment throughout the study. Blood samples were collected by venipuncture of a peripheral vein. Animals were acclimated to the squeeze back mechanism in their home cage by repeated, short periods of restraint during general husbandry procedures for at least 2 weeks prior to dosing. Animal were not removed from their cages for collection, and no anesthesia/analgesic agents were used for blood collection. […] For PK experiments, beagle dogs were individually housed in enclosed run (≥ 4 ft x 6 ft). Dogs were exposed to their daily ration of food, Harlan Teklad 2025C Certified Global 25% Protein Dog Diet. Water was provided from the public water supply (municipal tap water) ad libitum. Dogs were maintained on a 12:12 hour light:dark cycle at the 72–73°F temperature and 40–71% humidity. Every effort was made to minimize, if not eliminate, pain and suffering in all animals in this study. No restraining devices were used in blood collecting procedures. Dogs were gentle hand-held to restrain by trained technicians with the dogs foreleg extended for sample collection of blood from cephalic vein. Animals were awake during blood sample collection with no anesthesia/analgesic agents used, and positive reinforcement by the technician was provided following collection. […] All dogs were released back to the colony after the study was completed. Male beagle dogs and male cynomolgus monkey received a single i.v. dose of a test compound at 0.5 mg kg^−1 (dog) and 1 mg kg^−1 (monkey) or a single p.o. dose of a test compound of at 2 mg kg^−1 (dog) and 5 mg kg^−1 (monkey). The number of animals that was used in PK experiments is 3 per study group. Intravenous administration vehicle was 3% DMA/45% PEG300/12% ethanol/40% sterile water; p.o. vehicle was 2% Tween 80 in 0.9% saline. Blood was collected from dogs and monkeys at pre-dose and at 5, 15 and 30 min, and 1, 2, 4, 6, 8, 12, 24, 36 and 48 h post-dose in the i.v. arms and at 15 and 30 min, and 1, 2, 4, 6, 8, 12, 24, 36 and 48 h post-dose in the p.o. arm. […] Following protein extraction with acetonitrile, compound concentrations in plasma were measured by LC-MS/MS. The plasma drug level data were analyzed using WinNonlin software package; Model 201 (for i.v. bolus administration);was used for the analysis of i.v. data, and Model 200 (for extravascular administration) was used for the analysis of the p.o. data. […]
# [4] = design: method as in PMID 26181715; details: human liver microsomes; cited from earlier work
smiles,measurement,setting,value
Cc1cc(C(=O)O)nc(N2C[C@H]3C[C@@H](c4ccccc4C(F)(F)F)C[C@H]3C2)n1 [BPN-14136],"remaining at 0.5 h, 1 μM",[1],95%
same,hepatocyte CLint at 1 μM,[2],< 0.7 µL/min/1e6 cells
same,hepatocyte CLint at 1 μM,[3],< 0.7 µL/min/1e6 cells
same,plasma RBP4 lowering,plasma RBP4; single 0.5 mg kg^−1 i.v. dose,50%
same,reduction of RBP4,"plasma RBP4; single 2 mg kg^−1 oral dose, 24 h",53%
same,reduction of RBP4,"plasma RBP4; single 2 mg kg^−1 oral dose, 36 h",42%
same,reduction of RBP4,"plasma RBP4; single 2 mg kg^−1 oral dose, 48 h",39%
same,maximal plasma RBP4 reduction,"plasma RBP4; single 2 mg kg^−1 oral dose, at 8 hours post-dosing",60%
same,"stability in liver microsomes, % remaining at 30 min",[4],> 90%
